Tests used:
P-4E-BP1 (T37/46) = assay: Cell based AlphaLISA assay, inhibition of P-4E-BP1 (T37/46) in MDA-MB-468 cells (mTORC1 substrate); settings: AlphaLisa, two to four hours at 37° C.; for IC50: Homo sapiens, 4 h, read-out: pIC50 for Inhibition of mTORC1 and mTORC2 Substrate Phosphorylation P-4E-BP1-(T37/46) (converted)
Description: (§1) Cell Based AlphaLISA Assays For Determining IC50 For Inhibition of P-Akt (S473), P-4E-BP1(T37/46), and P-P70S6K (T389) in MDA-MB-468 Cells
(§2) mTOR Kinase Cellular Assay
(§3) To measure functional activity of mTORC1 and mTORC2 in cells the phosphorylation of 4EBPT (Thr37/46) and P70S6K (Thr389), and AKT1/2/3 (Ser473) was monitored using AlphaLisa SureFire Ultra Kits (Perkin Elmer). […] Incubations were terminated by removal of the assay buffer and addition of lysis buffer provided with the assay kit. Samples were processed according to the manufacturer's instructions. The Alpha signal from the respective phosphoproteinswas measured in duplicate using a microplate reader (Envision, Perkin-Elmer or Spectramax M5, Molecular Devices). Inhibitor concentration response curves were analyzed using normalized IC50 regression curve filling with control based normalization.

P-P70S6K (T389) = assay: Cell based AlphaLISA assay, inhibition of P-P70S6K (T389) in MDA-MB-468 cells (mTORC1 substrate); settings: AlphaLisa, two to four hours at 37° C.; for IC50: Homo sapiens, 4 h, read-out: pIC50 for Inhibition of mTORC1 and mTORC2 Substrate Phosphorylation p-P70S6K-(T389) (converted)
Description: as §1, §2, §3

P-Akt (S473) = assay: Cell based AlphaLISA assay, inhibition of P-Akt (S473) in MDA-MB-468 cells (mTORC2 substrate); settings: AlphaLisa, two to four hours at 37° C.; for IC50: Homo sapiens, 4 h, read-out: pIC50 for Inhibition of mTORC1 and mTORC2 Substrate Phosphorylation p-AKT1/2/3-(S473) (converted)
Description: as §1, §2, §3

Structure (SMILES) | IC50 (P-4E-BP1 (T37/46)) [nM] | IC50 (P-P70S6K (T389)) [nM] | IC50 (P-Akt (S473)) [nM] | pIC50 for Inhibition of mTORC1 and mTORC2 Substrate Phosphorylation P-4E-BP1-(T37/46) (P-4E-BP1 (T37/46)) | pIC50 for Inhibition of mTORC1 and mTORC2 Substrate Phosphorylation p-P70S6K-(T389) (P-P70S6K (T389)) | pIC50 for Inhibition of mTORC1 and mTORC2 Substrate Phosphorylation p-AKT1/2/3-(S473) (P-Akt (S473))
CO[C@H]1C[C@@H]2CC[C@@H](C)[C@@](O)(O2)C(=O)C(=O)N2CCCC[C@H]2C(=O)O[C@H]([C@H](C)C[C@@H]2CC[C@@H](OC(=O)NCc3cnc(N4CCN(c5ncc(C(=O)NCCOCCOCCOCCOCCC(=O)N6CCc7cc(Cn8nc(-c9cnc%10[nH]ccc%10c9)c9c(N)ncnc98)ccc7C6)c(N)n5)CC4)nc3)[C@H](OC)C2)CC(=O)[C@H](C)/C=C(\C)[C@@H](O)[C@@H](OC)C(=O)[C@H](C)C[C@H](C)/C=C/C=C/C=C/1C [Example 96] | < 3.16 | < 1 | 31.6 to 1000 |  |  | 
CO[C@H]1C[C@@H]2CC[C@@H](C)[C@@](O)(O2)C(=O)C(=O)N2CCCC[C@H]2C(=O)O[C@H]([C@H](C)C[C@@H]2CC[C@@H](OC(=O)N3CCc4nc(N5CCN(c6ncc(C(=O)NCCOCCOCCOCCOCCC(=O)N7CCc8cc(Cn9nc(-c%10cnc%11[nH]ccc%11c%10)c%10c(N)ncnc%109)ccc8C7)c(N)n6)CC5)ncc4C3)[C@H](OC)C2)CC(=O)[C@H](C)/C=C(\C)[C@@H](O)[C@@H](OC)C(=O)[C@H](C)C[C@H](C)/C=C/C=C/C=C/1C [Example 97] | < 3.16 | < 1 | 3.16 to 31.6 |  |  | 
CO[C@H]1C[C@@H]2CC[C@@H](C)[C@@](O)(O2)C(=O)C(=O)N2CCCC[C@H]2C(=O)O[C@H]([C@H](C)C[C@@H]2CC[C@@H](OC(=O)NC3CCN(CC(=O)NCCOCCOCCOCCOCCOCCOCCC(=O)N4CCc5cc(Cn6nc(-c7ccc8oc(N)nc8c7)c7c(N)ncnc76)ccc5C4)CC3)[C@H](OC)C2)C[C@@H](O)[C@H](C)/C=C(\C)[C@@H](O)[C@@H](OC)C(=O)[C@H](C)C[C@H](C)/C=C/C=C/C=C/1C [Example 98] | < 3.16 | < 1 | 3.16 to 31.6 |  |  | 
CO[C@H]1C[C@@H]2CC[C@@H](C)[C@@](O)(O2)C(=O)C(=O)N2CCCC[C@H]2C(=O)O[C@H]([C@H](C)C[C@@H]2CC[C@@H](OC(=O)NC3CCN(CC(=O)NCCOCCOCCOCCOCCOCCOCCC(=O)N4CCc5cc(Cn6nc(-c7ccc8oc(N)nc8c7)c7c(N)ncnc76)ccc5C4)CC3)[C@H](OC)C2)C[C@@H](OC)[C@H](C)/C=C(\C)[C@@H](O)[C@@H](OC)C(=O)[C@H](C)C[C@H](C)/C=C/C=C/C=C/1C [Example 99] | < 3.16 | < 1 | > 1000 |  |  | 
CO[C@H]1C[C@@H]2CC[C@@H](C)[C@@](O)(O2)C(=O)C(=O)N2CCCC[C@H]2C(=O)O[C@H]([C@H](C)C[C@@H]2CC[C@@H](OC(=O)N3CCC(N)(C(=O)NCCOCCOCCOCCOCCOCCOCCC(=O)N4CCc5cc(Cn6nc(-c7ccc8oc(N)nc8c7)c7c(N)ncnc76)ccc5C4)CC3)[C@H](OC)C2)C[C@@H](O)[C@H](C)/C=C(\C)[C@@H](O)[C@@H](OC)C(=O)[C@H](C)C[C@H](C)/C=C/C=C/C=C/1C [Example 101] | < 3.16 | < 1 | 3.16 to 31.6 |  |  | 
CO[C@H]1C[C@@H]2CC[C@@H](C)[C@@](O)(O2)C(=O)C(=O)N2CCCC[C@H]2C(=O)O[C@H]([C@H](C)C[C@@H]2CC[C@@H](OC(=O)NCc3cnc(N4CCN(C(=O)CN(C)CC(=O)NCCOCCOCCC(=O)N5CCc6cc(Cn7nc(-c8ccc9oc(N)nc9c8)c8c(N)ncnc87)ccc6C5)CC4)nc3)[C@H](OC)C2)C[C@@H](OC)[C@H](C)/C=C(\C)[C@@H](O)[C@@H](OC)C(=O)[C@H](C)C[C@H](C)/C=C/C=C/C=C/1C [Example 103] |  |  |  | − (<6) | +++ (≥9) | − (<6)
CO[C@H]1C[C@@H]2CC[C@@H](C)[C@@](O)(O2)C(=O)C(=O)N2CCCC[C@H]2C(=O)O[C@H]([C@H](C)C[C@@H]2CC[C@@H](OC(=O)NCc3cnc(N4CCN(c5ncc(C(=O)NCCOCCOCCOCCOCCC(=O)N6CCc7cc(Cn8nc(-c9ccc%10oc(N)nc%10c9)c9c(N)ncnc98)ccc7C6)cn5)[C@@H](C(=O)O)C4)nc3)[C@H](OC)C2)CC(=O)[C@H](C)/C=C(\C)[C@@H](O)[C@@H](OC)C(=O)[C@H](C)C[C@H](C)/C=C/C=C/C=C/1C [Example 105] |  |  |  | ++ (8.5 > pIC50 ≥ 7.5) | +++ (≥9) | − (<6)
CO[C@H]1C[C@@H]2CC[C@@H](C)[C@@](O)(O2)C(=O)C(=O)N2CCCC[C@H]2C(=O)O[C@H]([C@H](C)C[C@@H]2CC[C@@H](OC(=O)NCc3cnc(N4CCN(c5ncc(C(=O)N(C)CCOCCOCCOCCOCCC(=O)N6CCc7cc(Cn8nc(-c9ccc%10oc(N)nc%10c9)c9c(N)ncnc98)ccc7C6)c(N)n5)CC4)nc3)[C@H](OC)C2)C[C@@H](OC)[C@H](C)/C=C(\C)[C@@H](O)[C@@H](OC)C(=O)[C@H](C)C[C@H](C)/C=C/C=C/C=C/1C [Example 107] |  |  |  | − (<6) | +++ (≥9) | − (<6)
CO[C@H]1C[C@@H]2CC[C@@H](C)[C@@](O)(O2)C(=O)C(=O)N2CCCC[C@H]2C(=O)O[C@H]([C@H](C)C[C@@H]2CC[C@@H](OC(=O)NCc3cnc(N4CCN(c5ncc(C(=O)NCCOCCOCCOCCOCCC(=O)N6CCc7cc(Cn8nc(-c9cnc%10[nH]ccc%10c9)c9c(N)ncnc98)ccc7C6)c(N)n5)CC4)nc3)[C@H](OC)C2)CC(=O)[C@H](C)/C=C(\C)[C@@H](O)[C@@H](OC)C(=O)[C@H](C)C[C@H](C)/C=C/C=C/C=C/1C [Example 108] |  |  |  | − (<6) | ++ (9 > pIC50 ≥ 8) | − (<6)
CO[C@H]1C[C@@H]2CC[C@@H](C)[C@@](O)(O2)C(=O)C(=O)N2CCCC[C@H]2C(=O)O[C@H]([C@H](C)C[C@@H]2CC[C@@H](OC(=O)NCc3cnc(N4CCN(C(=O)CCOCCN5CCN(c6ncc(C(=O)N7CCc8cc(Cn9nc(-c%10ccc%11oc(N)nc%11c%10)c%10c(N)ncnc%109)ccc8C7)cn6)CC5)CC4)nc3)[C@H](OC)C2)CC(=O)[C@H](C)/C=C(\C)[C@@H](O)[C@@H](OC)C(=O)[C@H](C)C[C@H](C)/C=C/C=C/C=C/1C [Example 109] | > 1000 | 10 to 1000 | > 1000 |  |  | 
CO[C@H]1C[C@@H]2CC[C@@H](C)[C@@](O)(O2)C(=O)C(=O)N2CCCC[C@H]2C(=O)O[C@H]([C@H](C)C[C@@H]2CC[C@@H](OC(=O)NCc3cnc(N4CCN(C(=O)CCOCCN5CCN(c6ncc(C(=O)N7CCc8cc(Cn9nc(-c%10cnc%11[nH]ccc%11c%10)c%10c(N)ncnc%109)ccc8C7)cn6)CC5)CC4)nc3)[C@H](OC)C2)CC(=O)[C@H](C)/C=C(\C)[C@@H](O)[C@@H](OC)C(=O)[C@H](C)C[C@H](C)/C=C/C=C/C=C/1C [Example 110] | > 1000 | 1 to 10 | > 1000 |  |  | 
CO[C@H]1C[C@@H]2CC[C@@H](C)[C@@](O)(O2)C(=O)C(=O)N2CCCC[C@H]2C(=O)O[C@H]([C@H](C)C[C@@H]2CC[C@@H](OC(=O)NCc3cnc(N4CCN(c5ncc(C(=O)NCCOCCC(=O)N6CCN(c7ncc(C(=O)NCCCCn8nc(-c9ccc%10oc(N)nc%10c9)c9c(N)ncnc98)cn7)CC6)cn5)CC4)nc3)[C@H](OC)C2)CC(=O)[C@H](C)/C=C(\C)[C@@H](O)[C@@H](OC)C(=O)[C@H](C)C[C@H](C)/C=C/C=C/C=C/1C [Example 111] | < 3.16 | < 1 | > 1000 |  |  | 
CO[C@H]1C[C@@H]2CC[C@@H](C)[C@@](O)(O2)C(=O)C(=O)N2CCCC[C@H]2C(=O)O[C@H]([C@H](C)C[C@@H]2CC[C@@H](OC(=O)NCc3cnc(N4CCN(C(=O)CCOCCN5CCN(c6ncc(C(=O)NCCCCn7nc(-c8ccc9oc(N)nc9c8)c8c(N)ncnc87)cn6)CC5)CC4)nc3)[C@H](OC)C2)CC(=O)[C@H](C)/C=C(\C)[C@@H](O)[C@@H](OC)C(=O)[C@H](C)C[C@H](C)/C=C/C=C/C=C/1C [Example 112] | > 1000 | < 1 | > 1000 |  |  | 
CO[C@H]1C[C@@H]2CC[C@@H](C)[C@@](O)(O2)C(=O)C(=O)N2CCCC[C@H]2C(=O)O[C@H]([C@H](C)C[C@@H]2CC[C@@H](OC(=O)NCc3cnc(N4CCN(C(=O)CCOCCN5CCN(c6ncc(C(=O)N7CCc8cc(Cn9nc(-c%10ccc%11oc(N)nc%11c%10)c%10c(N)ncnc%109)ccc8C7)cn6)CC5)CC4)nc3)[C@H](OC)C2)C[C@@H](O)[C@H](C)/C=C(\C)[C@@H](O)[C@@H](OC)C(=O)[C@H](C)C[C@H](C)/C=C/C=C/C=C/1C [Example 113] | < 3.16 | < 1 | 3.16 to 31.6 |  |  | 
CO[C@H]1C[C@@H]2CC[C@@H](C)[C@@](O)(O2)C(=O)C(=O)N2CCCC[C@H]2C(=O)O[C@H]([C@H](C)C[C@@H]2CC[C@@H](OC(=O)NCc3cnc(N4CCN(C(=O)CCOCCN5CCN(c6ncc(C(=O)N7CCc8cc(Cn9nc(-c%10ccc%11oc(N)nc%11c%10)c%10c(N)ncnc%109)ccc8C7)cn6)CC5)CC4)nc3)[C@H](OC)C2)C[C@@H](OC)[C@H](C)/C=C(\C)[C@@H](O)[C@@H](OC)C(=O)[C@H](C)C[C@H](C)/C=C/C=C/C=C/1C [Example 114] | < 3.16 | < 1 | > 1000 |  |  | 
